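Values below derive from 48-hour exposures of cells grown in 96-well plates, with endpoints linearly interpolated between the two concentrations bracketing the appropriate inhibition level. The concentration for 50% growth inhibition is given as GI50. TGI: total growth inhibition.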
Assays:
Test in all cases: NCI-60 cell line screen, 48 h
A498 renal = test system: A498 renal
BT-549 breast = test system: BT-549 breast
CAKI-1 renal = test system: CAKI-1 renal
DU-145 prostate = test system: DU-145 prostate
HOP-92 NSCLC = test system: HOP-92 NSCLC
IGROV1 ovarian = test system: IGROV1 ovarian
M14 melanoma = test system: M14 melanoma
MALME-3M melanoma = test system: MALME-3M melanoma
MDA-MB-231 breast = test system: MDA-MB-231 breast
NCI/ADR-RES ovarian = test system: NCI/ADR-RES ovarian
PC-3 prostate = test system: PC-3 prostate
SF-295 CNS = test system: SF-295 CNS
SF-539 CNS = test system: SF-539 CNS
SK-OV-3 ovarian = test system: SK-OV-3 ovarian
TK-10 renal = test system: TK-10 renal
UACC-62 melanoma = test system: UACC-62 melanoma
UO-31 renal = test system: UO-31 renal
786-0 renal = test system: 786-0 renal
A549 NSCLC = test system: A549 NSCLC
ACHN renal = test system: ACHN renal
COLO 205 colon = test system: COLO 205 colon
HCC-2998 colon = test system: HCC-2998 colon
HCT-116 colon = test system: HCT-116 colon
HCT-15 colon = test system: HCT-15 colon
HL-60(TB) leukemia = test system: HL-60(TB) leukemia
HOP-62 NSCLC = test system: HOP-62 NSCLC
HS 578T breast = test system: HS 578T breast
HT29 colon = test system: HT29 colon
K-562 leukemia = test system: K-562 leukemia
LOX IMVI melanoma = test system: LOX IMVI melanoma
MCF7 breast = test system: MCF7 breast
MDA-MB-435 = test system: MDA-MB-435
NCI-H226 lung = test system: NCI-H226 lung
NCI-H23 lung = test system: NCI-H23 lung
NCI-H460 lung = test system: NCI-H460 lung
OVCAR-3 ovarian = test system: OVCAR-3 ovarian
OVCAR-4 ovarian = test system: OVCAR-4 ovarian
OVCAR-5 ovarian = test system: OVCAR-5 ovarian
OVCAR-8 ovarian = test system: OVCAR-8 ovarian
RPMI-8226 leukemia = test system: RPMI-8226 leukemia
RXF 393 renal = test system: RXF 393 renal
SF-268 CNS = test system: SF-268 CNS
SK-MEL-2 melanoma = test system: SK-MEL-2 melanoma
SK-MEL-28 melanoma = test system: SK-MEL-28 melanoma
SK-MEL-5 melanoma = test system: SK-MEL-5 melanoma
SN12C renal = test system: SN12C renal
SNB-19 CNS = test system: SNB-19 CNS
SNB-75 CNS = test system: SNB-75 CNS
SW-620 colon = test system: SW-620 colon
T-47D breast = test system: T-47D breast
U251 CNS = test system: U251 CNS
UACC-257 melanoma = test system: UACC-257 melanoma
EKVX NSCLC = test system: EKVX NSCLC

## O=C1c2[nH]cc(CN[C@@H]3CCCN3)c2C(=O)c2c1c(O)c1ccccc1c2O
A498 renal
  GI50: 0.544 µM
  TGI: 16.3 µM
BT-549 breast
  GI50: 4.67 µM
  TGI: 38.4 µM
CAKI-1 renal
  GI50: 0.927 µM
  TGI: 2.87 µM
DU-145 prostate
  GI50: 0.786 µM
  TGI: 2.04 µM
HOP-92 NSCLC
  GI50: 0.19 µM
  TGI: 1.65 µM
IGROV1 ovarian
  GI50: 0.262 µM
  TGI: 1.02 µM
M14 melanoma
  GI50: 1.58 µM
  TGI: 3 µM
MALME-3M melanoma
  GI50: 1.59 µM
  TGI: 3.07 µM
MDA-MB-231 breast
  GI50: 0.527 µM
  TGI: 1.84 µM
NCI/ADR-RES ovarian
  GI50: 3.88 µM
  TGI: 30.6 µM
PC-3 prostate
  GI50: 0.358 µM
  TGI: 1.51 µM
SF-295 CNS
  GI50: 0.288 µM
  TGI: 1.25 µM
SF-539 CNS
  GI50: 1.36 µM
  TGI: 2.67 µM
SK-OV-3 ovarian
  GI50: 0.583 µM
  TGI: 1.78 µM
TK-10 renal
  GI50: 1.07 µM
  TGI: 2.29 µM
UACC-62 melanoma
  GI50: 1.29 µM
  TGI: 2.58 µM
UO-31 renal
  GI50: 0.261 µM
  TGI: 1.52 µM

## CC(SC(=S)N1CCCC1)C(=O)Nc1nnc(-c2ccc(Cl)cc2)o1 (configuration not stated)
786-0 renal
  TGI: 32.9 µM
A498 renal
  TGI: > 100 µM
A549 NSCLC
  TGI: > 100 µM
ACHN renal
  TGI: > 100 µM
BT-549 breast
  TGI: > 100 µM
COLO 205 colon
  TGI: > 100 µM
DU-145 prostate
  TGI: > 100 µM
HCC-2998 colon
  TGI: > 100 µM
HCT-116 colon
  TGI: 50 µM
HCT-15 colon
  TGI: > 100 µM
HL-60(TB) leukemia
  TGI: 0.143 µM
HOP-62 NSCLC
  TGI: > 100 µM
HOP-92 NSCLC
  TGI: > 100 µM
HS 578T breast
  TGI: > 100 µM
HT29 colon
  TGI: 51 µM
IGROV1 ovarian
  TGI: > 100 µM
K-562 leukemia
  TGI: 78.7 µM
LOX IMVI melanoma
  TGI: 54.8 µM
M14 melanoma
  TGI: 37.1 µM
MALME-3M melanoma
  TGI: 84.2 µM
MCF7 breast
  TGI: > 100 µM
MDA-MB-231 breast
  TGI: > 100 µM
MDA-MB-435
  TGI: > 100 µM
NCI-H226 lung
  TGI: > 100 µM
NCI-H23 lung
  TGI: > 100 µM
NCI-H460 lung
  TGI: > 100 µM
NCI/ADR-RES ovarian
  TGI: > 100 µM
OVCAR-3 ovarian
  TGI: > 100 µM
OVCAR-4 ovarian
  TGI: > 100 µM
OVCAR-5 ovarian
  TGI: > 100 µM
OVCAR-8 ovarian
  TGI: > 100 µM
PC-3 prostate
  TGI: > 100 µM
RPMI-8226 leukemia
  TGI: 44.8 µM
RXF 393 renal
  TGI: > 100 µM
SF-268 CNS
  TGI: 96.9 µM
SF-539 CNS
  TGI: > 100 µM
SK-MEL-2 melanoma
  TGI: > 100 µM
SK-MEL-28 melanoma
  TGI: > 100 µM
SK-MEL-5 melanoma
  TGI: 82.8 µM
SK-OV-3 ovarian
  TGI: > 100 µM
SN12C renal
  TGI: 59.9 µM
SNB-19 CNS
  TGI: > 100 µM
SNB-75 CNS
  TGI: > 100 µM
SW-620 colon
  TGI: > 100 µM
T-47D breast
  TGI: > 100 µM
TK-10 renal
  TGI: > 100 µM
U251 CNS
  TGI: > 100 µM
UACC-257 melanoma
  TGI: > 100 µM
UACC-62 melanoma
  TGI: > 100 µM
UO-31 renal
  TGI: 63.9 µM

## CO/N=C1\CC(C)N2C(=O)C(C(C)C)NC(=O)C(NC(=O)c3c4nc5c(C(=O)NC6C(=O)NC(C(C)C)C(=O)N7C(C)CC(O)C7C(=O)N(C)CC(=O)N(C)C(C(C)C)C(=O)OC6C)ccc(C)c5oc-4c(C)c(=O)c3N)C(CO)OC(=O)C(C)N(C)C(=O)CN(C)C(=O)C12 (configuration not stated)
BT-549 breast
  TGI: 17 µM
HOP-92 NSCLC
  TGI: 16.9 µM
NCI-H226 lung
  TGI: 3.81 µM
NCI-H23 lung
  TGI: 14.5 µM
UACC-257 melanoma
  TGI: 4.31 µM

## Cc1ccc(C)c(-n2c(-c3ccc(Br)cc3)csc2=NC(=O)c2ccccc2F)c1
786-0 renal
  GI50: > 100 µM
  TGI: > 100 µM
A498 renal
  GI50: > 100 µM
  TGI: > 100 µM
A549 NSCLC
  GI50: > 100 µM
  TGI: > 100 µM
BT-549 breast
  GI50: > 100 µM
  TGI: > 100 µM
COLO 205 colon
  GI50: > 100 µM
  TGI: > 100 µM
DU-145 prostate
  GI50: > 100 µM
  TGI: > 100 µM
EKVX NSCLC
  GI50: > 100 µM
  TGI: > 100 µM
HCC-2998 colon
  GI50: > 100 µM
  TGI: > 100 µM
HCT-116 colon
  GI50: 3.1 µM
  TGI: > 100 µM
HCT-15 colon
  GI50: > 100 µM
  TGI: > 100 µM
HL-60(TB) leukemia
  GI50: 2.82 µM
  TGI: > 100 µM
HOP-62 NSCLC
  GI50: > 100 µM
  TGI: > 100 µM
HS 578T breast
  GI50: > 100 µM
  TGI: > 100 µM
IGROV1 ovarian
  GI50: > 100 µM
  TGI: > 100 µM
K-562 leukemia
  GI50: 3.47 µM
  TGI: > 100 µM
LOX IMVI melanoma
  GI50: > 100 µM
  TGI: > 100 µM
M14 melanoma
  GI50: > 100 µM
  TGI: > 100 µM
MALME-3M melanoma
  GI50: > 100 µM
  TGI: > 100 µM
MDA-MB-231 breast
  GI50: > 100 µM
  TGI: > 100 µM
MDA-MB-435
  GI50: > 100 µM
  TGI: > 100 µM
NCI-H226 lung
  GI50: > 100 µM
  TGI: > 100 µM
NCI/ADR-RES ovarian
  GI50: > 100 µM
  TGI: > 100 µM
OVCAR-3 ovarian
  GI50: > 100 µM
  TGI: > 100 µM
OVCAR-4 ovarian
  GI50: 9.57 µM
  TGI: > 100 µM
OVCAR-5 ovarian
  GI50: > 100 µM
  TGI: > 100 µM
OVCAR-8 ovarian
  GI50: > 100 µM
  TGI: > 100 µM
PC-3 prostate
  GI50: 3.29 µM
  TGI: > 100 µM
RXF 393 renal
  GI50: > 100 µM
  TGI: > 100 µM
SF-268 CNS
  GI50: > 100 µM
  TGI: > 100 µM
SF-295 CNS
  GI50: 52.4 µM
  TGI: > 100 µM
SF-539 CNS
  GI50: > 100 µM
  TGI: > 100 µM
SK-MEL-2 melanoma
  GI50: > 100 µM
  TGI: > 100 µM
SK-MEL-28 melanoma
  GI50: > 100 µM
  TGI: > 100 µM
SK-MEL-5 melanoma
  GI50: 2.62 µM
  TGI: > 100 µM
SK-OV-3 ovarian
  GI50: > 100 µM
  TGI: > 100 µM
SN12C renal
  GI50: > 100 µM
  TGI: > 100 µM
SNB-19 CNS
  GI50: > 100 µM
  TGI: > 100 µM
SNB-75 CNS
  GI50: > 100 µM
  TGI: > 100 µM
SW-620 colon
  GI50: > 100 µM
  TGI: > 100 µM
TK-10 renal
  GI50: > 100 µM
  TGI: > 100 µM
U251 CNS
  GI50: > 100 µM
  TGI: > 100 µM
UACC-257 melanoma
  GI50: > 100 µM
  TGI: > 100 µM
UACC-62 melanoma
  GI50: > 100 µM
  TGI: > 100 µM
UO-31 renal
  GI50: > 100 µM
  TGI: > 100 µM

Reference: PubChem BioAssay (NCI)
